According to patent US20090036380A1, “Composition And Method For Brain Tumor Therapy” (Yeda Research and Development Co., Ltd., priority 2006, published 2009):

Experiments:
PC12 cells [1] = experiment: Effect of pathway proteins and inhibitors on Karet-induced cell death in PC12 cells; type: cell-based, rat
[2] = test system: human medulloblastoma cells (MED 283) stably transfected to express TrkA; settings: cited from earlier work
PC12 cells [3] = experiment: Viability / death of PC12 cells after transfection with Karet constructs (Live/dead kit, FACS, cell counting, Hoechst); type: cell-based, rat
Protocol: FIG. 5a is a bar-graph of FACS data depicting 50 percent death of PC12 cells overexpressing Karet. Shown is a FACS analysis of PC12 viability 15 hours after transfection with Ha-Karet or control vector using Live/dead kit (Molecular probes), T-test=0.003.
FIG. 5b is a series of fluorescence photomicrographs depicting death of PC12 cells caused by Karet overexpression. Shown is a live/dead kit analysis of PC12 cells overexpressing Ha-Karet (left panels) versus control vector-transfected cells (right panels). Live cell are stained in green, dead cells are stained in red. Upper panels each show red fluorescence only (left picture) and green fluorescence only (right picture) pairs, and lower panels each show combined red and green fluorescence (left picture) and light microscopy images (right picture) pairs.
FIG. 5d is a pair of Hoechst stain histology photomicrographs depicting condensation of chromatin indicating apoptosis in PC12 cells expressing Karet, but not in control cells transfected with vector only.
FIG. 5e is a histogram depicting that Karet expression induces cell death of TrkA expressing cells, which is increased by NGF treatment and is decreased by necdin. PC12 or PC12 necdin stable cell line were electroporated with Karet or GFP control and incubated with or without 50 ng/ml NGF for 12 hours. Cells were counted and result presented as percent of control.
PC12 cells were transfected with Ha Karet, PTB, non PTB and their combinations. Cells were analyzed by FACS 18 hours after transfection using the dead/live kit. N=3; * p<0.05; **p<0.001;
The lower panel is a histogram depicting that Karet-mediated cell death correlates well with expression levels of the Karet protein. PC12 Tet-on cells were electroporated with Ha-Karet cloned under inducible promoter and incubated for 24 hours with different concentrations of doxycycline. Cells transfected with Karet but not treated with doxycycline served as control. Cells were counted and the results were determined as percent of control. The upper panel is a control Western blot depicting increased Karet expression with increased concentrations of doxycycline. Cells transfected with Karet and treated with doxycycline were lysed in NP-40 buffer and subjected to SDS-PAGE analysis. Similar amount of protein was loaded and blotted for Karet expression with Ha antibody. Proteins levels were checked with anti-tubulin antibody.
FIG. 18a—PC12 were transfected with Ha Karet, Karet F217V, PTB F217V or a control vector (pcDNA3) and 18 hours after transfection the effect of Karet or Karet mutants on cell death was determined using the dead/live kit and FACS analysis. Results are presented in percentages as compared to cells transfected with the control vector. N=3 **P<0.001. […] FIG. 18b—Cells were lysed 24 hours after transfection, fractionated on SDS-PAGE and immunoblot for anti Ha (Covance).
FIG. 19 is a histogram depicting FACS analysis of Karet-induced death. PC12 cells were co-transfected with Karet and the PTB, non-PTB or the F217V mutant at different ratios (1:1, 1:2, 1:3) and 18 hours after transfection the cells were analyzed by FACS using the dead/live kit.
Viability of cells was evaluated using the Live/dead viability/cytotoxicity kit (Cat. No. L-3224), Molecular Probes, Inc., Eugene, Oreg., USA, according to manufacturer's instructions.

TrkA [4] = experiment: Co-immunoprecipitation of HA-Karet constructs with TrkA; type: binding; settings: co-transfected Hek or NNR5 cells, anti-HA IP
Protocol: (§1) FIG. 3c is a co-immunoprecipitation assay depicting co-immunoprecipitation of HA-Karet with TrkA in COS cells. Karet tagged with the HA epitope was immunoprecipitated with anti-HA antibody and the blot was incubated with anti-TrkA (RTA). In control experiments the HA-Karet was substituted with vector.
(§2) FIG. 3d is a co-immunoprecipitation assay depicting interaction of Karet and TrkA in NNR5 cells transfected with TrkA.
(§3) FIG. 3e is a co-immunoprecipitation assay depicting co-immunoprecipitation of HA-Karet with TricA in co-transfected NNR5 cells immunoprecipitated with anti-HA (Roche) and Western blot with the anti-TrkA antibody C14 (Santa Cruz).
(§4) FIGS. 4a-c are co-immunoprecipitation assay results depicting the influence of NGF treatment on TrkA-Karet interaction. FIG. 4a depicts that TrkA-Karet interaction occurred prior to NGF treatment and was enhanced after ligand stimulation for 10 minutes (10 m) or 2 hours (2 h). HA-Karet was electroporated into cell line PC12, and the cells were treated with 50 ng/ml NGF for the indicated time periods in order to activate p75 and TrkA. Karet tagged with the HA epitope was immunoprecipitated with anti-HA antibody, the precipitated proteins were separated electrophoretically, and gel blots were incubated with anti-TrkA antibody (RTA). FIG. 4b depicts that necdin seems to compete with TrkA for binding to Karet. myc-Karet was electroporated into necdin stable cell line, and the cells were treated with 50 ng/ml NGF for the indicated time periods. Karet tagged with the myc epitope was immunoprecipitated with anti-myc antibody, the precipitated proteins were separated electrophoretically, and gel blots were incubated with anti-TrkA antibody (RTA). […] A blot from the same experiment was stripped and re-incubated with anti-necdin antibody. The arrow indicates the glycosylated form of TrkA (molecular weight of 140 kDa).
(§5) FIG. 7b is an immunoprecipitation assay depicting that the PTB domain-containing Karet(1-228) mutant, but not Karet(228-453) co-immunoprecipitates with TrkA in NNR5 cells. Truncation mutants tagged with the HA epitope were immunoprecipitated with anti-HA antibody, the precipitated proteins were separated electrophoretically, and gel blots were incubated with anti-TrkA (RTA).
(§6) FIGS. 24a-d depict co IP of Ha Karet with TrkA, TrkB, TrkC, p75 from co-transfected Hek cells. Cells were co-transfected with Ha Karet or control vector and TrkA, TrkB, TrkC or p75. Cells were lysed with NP40, the HA-beads (beads conjugated to anti-HA antibody) were blocked with Hek lysate, and elution was done for 30 minutes at 37° C. […]

TrkA [5] = molecular target: T1, TrkA (Rattus norvegicus, UniProt P35739); experiment: as above; type: binding; settings: PC12 cells transfected with Karet; 50 ng/ml NGF, 10 minutes and 2 hours
T1 construct: expressed in transfected cells
T1 sequence (P35739 33-799): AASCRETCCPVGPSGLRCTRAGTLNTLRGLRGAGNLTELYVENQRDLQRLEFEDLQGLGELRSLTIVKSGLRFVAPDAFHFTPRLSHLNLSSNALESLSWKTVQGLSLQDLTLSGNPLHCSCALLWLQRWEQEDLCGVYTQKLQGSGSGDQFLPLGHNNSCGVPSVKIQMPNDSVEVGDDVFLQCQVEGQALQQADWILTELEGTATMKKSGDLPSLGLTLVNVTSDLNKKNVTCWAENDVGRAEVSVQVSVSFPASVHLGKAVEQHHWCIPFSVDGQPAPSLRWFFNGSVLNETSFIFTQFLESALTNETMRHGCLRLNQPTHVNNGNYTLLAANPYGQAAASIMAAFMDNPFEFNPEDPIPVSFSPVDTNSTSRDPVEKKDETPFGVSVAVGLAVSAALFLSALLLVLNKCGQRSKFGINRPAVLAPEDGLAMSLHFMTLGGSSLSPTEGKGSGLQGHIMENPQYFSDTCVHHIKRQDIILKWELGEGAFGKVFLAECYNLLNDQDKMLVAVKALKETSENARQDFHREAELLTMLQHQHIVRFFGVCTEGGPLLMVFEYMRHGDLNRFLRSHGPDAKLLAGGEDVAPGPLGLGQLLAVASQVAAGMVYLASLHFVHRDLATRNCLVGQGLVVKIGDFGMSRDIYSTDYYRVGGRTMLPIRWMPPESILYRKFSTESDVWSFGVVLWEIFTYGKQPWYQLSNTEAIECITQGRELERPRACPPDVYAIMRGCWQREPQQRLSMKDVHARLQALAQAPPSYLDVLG
Protocol: as §1, §2, §3, §4, §5, §6

For `COC(=O)[C@@]1(O)C[C@H]2O[C@]1(C)n1c3ccccc3c3c4c(c5c6ccccc6n2c5c31)C(=O)NC4` [K252a, reference compound], the “effect on cell death effect of Karet” value (PC12 cells [1]; PC12 cells expressing Karet, 12 hours, different concentrations of K252A) is given as “diminished the cell death effect of Karet” and the “effect on NGF-induced apoptosis” value ([2]; TrkA-medulloblastoma cells) is given as “inhibited”.

In the case of `C[S+]([O-])c1ccc(-c2nc(-c3ccncc3)c(-c3ccc(F)cc3)[nH]2)cc1` (centres unmarked) [SB203580, reference compound], the “effect on cell death induction by Karet” value (PC12 cells [1]; PC12 electroporated with Karet, 10 micromolar SB203580) is reported as “did not affect cell death induction”.

In the case of “Karet(228-453): C-terminal truncation mutant of mouse Karet, amino acid residues 228-453 (SEQ ID NO:8)”, the “effect on Karet-induced death in competition assay” value (PC12 cells [3]; PC12 co-transfected with Karet at ratios 1:1, 1:2, 1:3, FACS 18 hours after transfection) is reported as “reduced Karet-induced death” and the “co-immunoprecipitation / interaction with TrkA” value (TrkA [4]) is reported as “does not”.

In the case of “NGF: nerve growth factor, neurotrophin ligand of TrkA”, the “additional increase of death by NGF treatment” value (PC12 cells [3]; PC12 cells overexpressing Karet, 50 ng/ml NGF, 12 hours) is listed as 30%, the “effect of NGF on TrkA-Karet interaction” value (TrkA [5]) is listed as “enhanced” and the “cell death on NGF treatment” value ([2]; MED 283 cells expressing TrkA) is listed as “significant levels of cell death”.
